{"source": "patent US7628987B2", "about": "“Vectors derived from antibodies for transferring substances into cells” (Institut Pasteur, priority 1997, dated 2009)", "key": {"[1]": {"tested_on": "HSV-1 TK^− virus", "test": "microbe, parasite or virus in culture", "assay_type": "cell-based, Herpes Virus Simplex type I", "conditions": "for inhibition of the CPE effect, in words: HSV-1 TK^−; for CPE inhibition (AI): HSV1 TK^−"}, "[2]": {"tested_on": "Vero cells", "test": "Toxicity reference: non infected treated Vero cells (Neutral Red OD)", "assay_type": "cell-based, monkey", "protocol": "The CPE inhibition test is a semi-quantitative test which measures the % survival of the cells. The following protocol was followed: Vero cells were trypsinised (trypsin-versene, Eurobio), distributed in flat bottomed 96-well plates (Falcon) in an amount of […] per well, in 50 μl of DMEM medium (Bioproducts) supplemented with antibiotics, L-glutamine and 5% FCS (Eurobio), then incubated for 24 hours. The peptide/antibodies, sterilised on a […] filter, were added in an amount of […] using the following schedule: • H−24: cells into culture; • H−0: infection; • H−2, H−1, H0, H+1: add peptides; • H+48: CPE test.\n48 hours after infection, the medium was removed and the wells were washed 3 times with 200 μl of sterile PBS buffer containing Ca^2+ and Mg^2+, so as to eliminate dead cells. Neutral Red (RAL, 0.3%) was added (100 μl/well) and the cells were incubated for 2 more hours. The cells were then washed 3 times as described above to eliminate colorant which had not been incorporated into the cells. The cells were then exploded by adding 100 μl of 1% SDS in distilled water. After 1 hour at 4° C. to completely leach out the Neutral Red, the crystals were dissolved with a pipette. Air bubbles were destroyed by a current of hot air (hair dryer) and the plates were read, using a microplate reader at 570 nm using a 630 nm reference filter. The optical density blank was air.\nThe following controls were used: • Reference cells: non infected and non treated, incubated with Neutral Red; • Reference virus: infected cells with different dilutions of a factor of 2 of virus, from 100% CPE (dilution 1/1) to 12.5% CPE (1/8 dilution); • Antiviral reference: cells treated with acyclovir and infected; and • Toxicity reference: non infected cells, treated with different peptides/antibodies."}, "[3]": {"tested_on": "HSV-1 TK^+ virus", "test": "microbe, parasite or virus in culture", "assay_type": "cell-based, Herpes Virus Simplex type I"}, "[4]": {"tested_on": "PV1/Sabin", "assay_type": "cell-based, polio virus type 1", "conditions": "PV1/Sabin, peptide 25 μg/ml, day 5"}, "[5]": {"tested_on": "PV1/Mahoney", "assay_type": "cell-based, polio virus type 1", "conditions": "peptide 25 μg/ml, day 5"}, "[6]": {"conditions": "Human alphaherpesvirus 1, Vero, read-out: CPE inhibition (antiviral activity)"}, "[7]": {"conditions": "HSV1 TK^+, added H + 1, 5 μ/well"}, "[8]": {"conditions": "HSV1 TK^+, added H − 1, 5 μ/well"}, "[9]": {"conditions": "HSV1 TK^+, added H − 2, 5 μ/well"}}, "data": [{"molecule": "Nc1nc2c(ncn2COCCO)c(=O)[nH]1", "note": "[ACYCLOVIR ®, Acyclovir, reference compound]", "values": [{"measurement": "inhibition of the CPE effect, in words", "setting": "[1]", "result": "no effect"}, {"measurement": "inhibition at 1 µM", "setting": "[1]; [6]", "result": 0, "unit": "%"}, {"measurement": "inhibition at 10 µM", "setting": "[1]; [6]", "result": 0, "unit": "%"}, {"measurement": "inhibition at 100 µM", "setting": "[1]; [6]", "result": 0, "unit": "%"}, {"measurement": "inhibition at 1000 µM", "setting": "[1]; [6]", "result": 0, "unit": "%"}, {"measurement": "optical density, non infected cells", "setting": "[2]; 10^−3 M /0, column HSV1 TK^+", "result": "0.909 ± 0.016"}, {"measurement": "optical density, non infected cells", "setting": "[2]; 10^−3 M /0, column HSV1 TK^−", "result": "0.789 ± 0.160"}, {"measurement": "optical density, non infected cells", "setting": "[2]; 10^−4 M /0, column HSV1 TK^+", "result": "1.027 ± 0.042"}, {"measurement": "optical density, non infected cells", "setting": "[2]; 10^−4 M /0, column HSV1 TK^−", "result": "0.834 ± 0.086"}, {"measurement": "optical density, non infected cells", "setting": "[2]; 10^−5 M /0, column HSV1 TK^+", "result": "0.975 ± 0.093"}, {"measurement": "optical density, non infected cells", "setting": "[2]; 10^−5 M /0, column HSV1 TK^−", "result": "0.869 ± 0.053"}, {"measurement": "optical density, non infected cells", "setting": "[2]; 10^−6 M /0, column HSV1 TK^+", "result": "0.960 ± 0.025"}, {"measurement": "optical density, non infected cells", "setting": "[2]; 10^−6 M /0, column HSV1 TK^−", "result": "0.816 ± 0.001"}, {"measurement": "inhibition at 1000 µM", "setting": "[3]; Human alphaherpesvirus 1, Vero, 10^−3 M, HSV1 TK^+, read-out: CPE inhibition (antiviral activity)", "result": 62, "unit": "%"}, {"measurement": "inhibition at 100 µM", "setting": "[3]; Human alphaherpesvirus 1, Vero, 10^−4 M, HSV1 TK^+, read-out: CPE inhibition (antiviral activity)", "result": 49, "unit": "%"}, {"measurement": "inhibition at 10 µM", "setting": "[3]; Human alphaherpesvirus 1, Vero, 10^−5 M, HSV1 TK^+, read-out: CPE inhibition (antiviral activity)", "result": 7, "unit": "%"}, {"measurement": "inhibition at 1 µM", "setting": "[3]; Human alphaherpesvirus 1, Vero, 10^−6 M, HSV1 TK^+, read-out: CPE inhibition (antiviral activity)", "result": 9, "unit": "%"}]}, {"molecule": "(K)19-AISRGGGYSYYLDTVKRTARATWDWFAY (KKKKKKKKKKKKKKKKKKKAISRGGGYSYYLDTVKRTARATWDWFAY) [K19PC2.1]", "values": [{"measurement": "CPE inhibition (AI)", "setting": "[1]; added H0, 5 μ/well", "result": 81}, {"measurement": "CPE inhibition (AI)", "setting": "[1]; added H0, 10 μ/well", "result": 92}, {"measurement": "CPE inhibition (AI)", "setting": "[1]; added H + 1, 5 μ/well", "result": 26}, {"measurement": "CPE inhibition (AI)", "setting": "[1]; added H − 1, 5 μ/well", "result": 72}, {"measurement": "CPE inhibition (AI)", "setting": "[1]; added H − 2, 5 μ/well", "result": 100}, {"measurement": "CPE inhibition (AI)", "setting": "[3]; HSV1 TK^+, added H0, 5 μ/well", "result": 69}, {"measurement": "CPE inhibition (AI)", "setting": "[3]; [7]", "result": 37}, {"measurement": "CPE inhibition (AI)", "setting": "[3]; [8]", "result": 8}, {"measurement": "CPE inhibition (AI)", "setting": "[3]; [9]", "result": 1}, {"measurement": "LOG (TITER/ML)", "setting": "[4]", "result": 8.6}, {"measurement": "TITER REDUCTION FACTOR", "setting": "[4]", "result": 8}, {"measurement": "LOG (TITER/ML)", "setting": "[5]", "result": 9.05}, {"measurement": "TITER REDUCTION FACTOR", "setting": "[5]", "result": 4}]}, {"molecule": "(K)19-VAYISRGGGIFYYQDSIKGRFTREKYGKRGMDY (KKKKKKKKKKKKKKKKKKKVAYISRGGGIFYYQDSIKGRFTREKYGKRGMDY) [K19pJ20-8]", "values": [{"measurement": "CPE inhibition (AI)", "setting": "[1]; added H0, 5 μ/well", "result": 38}, {"measurement": "CPE inhibition (AI)", "setting": "[1]; added H0, 10 μ/well", "result": 56}, {"measurement": "CPE inhibition (AI)", "setting": "[1]; added H0, 20 μ/well", "result": 86}, {"measurement": "CPE inhibition (AI)", "setting": "[1]; added H + 1, 5 μ/well", "result": 1}, {"measurement": "CPE inhibition (AI)", "setting": "[1]; added H + 1, 10 μ/well", "result": 3}, {"measurement": "CPE inhibition (AI)", "setting": "[1]; added H + 1, 20 μ/well", "result": 11}, {"measurement": "CPE inhibition (AI)", "setting": "[1]; added H − 1, 5 μ/well", "result": 29}, {"measurement": "CPE inhibition (AI)", "setting": "[1]; added H − 1, 10 μ/well", "result": 49}, {"measurement": "CPE inhibition (AI)", "setting": "[1]; added H − 1, 20 μ/well", "result": 100}, {"measurement": "CPE inhibition (AI)", "setting": "[1]; added H − 2, 5 μ/well", "result": 55}, {"measurement": "CPE inhibition (AI)", "setting": "[1]; added H − 2, 10 μ/well", "result": 46}, {"measurement": "CPE inhibition (AI)", "setting": "[1]; added H − 2, 20 μ/well", "result": 0}, {"measurement": "inhibition of the CPE effect, in words", "setting": "[1]", "result": "very active against the two viral strains"}, {"measurement": "CPE inhibition (AI)", "setting": "[3]; HSV1 TK^+, added H0, 5 μ/well", "result": 37}, {"measurement": "CPE inhibition (AI)", "setting": "[3]; HSV1 TK^+, added H0, 10 μ/well", "result": 71}, {"measurement": "CPE inhibition (AI)", "setting": "[3]; HSV1 TK^+, added H0, 20 μ/well", "result": 86}, {"measurement": "CPE inhibition (AI)", "setting": "[3]; [7]", "result": 0}, {"measurement": "CPE inhibition (AI)", "setting": "[3]; HSV1 TK^+, added H + 1, 10 μ/well", "result": 1}, {"measurement": "CPE inhibition (AI)", "setting": "[3]; HSV1 TK^+, added H + 1, 20 μ/well", "result": 0}, {"measurement": "CPE inhibition (AI)", "setting": "[3]; [8]", "result": 27}, {"measurement": "CPE inhibition (AI)", "setting": "[3]; HSV1 TK^+, added H − 1, 10 μ/well", "result": 74}, {"measurement": "CPE inhibition (AI)", "setting": "[3]; HSV1 TK^+, added H − 1, 20 μ/well", "result": 89}, {"measurement": "CPE inhibition (AI)", "setting": "[3]; [9]", "result": 1}, {"measurement": "CPE inhibition (AI)", "setting": "[3]; HSV1 TK^+, added H − 2, 10 μ/well", "result": 44}, {"measurement": "CPE inhibition (AI)", "setting": "[3]; HSV1 TK^+, added H − 2, 20 μ/well", "result": 78}, {"measurement": "inhibition of the CPE effect, in words", "setting": "[3]; HSV-1 TK^+", "result": "very active against the two viral strains"}, {"measurement": "LOG (TITER/ML)", "setting": "[4]", "result": 8.6}, {"measurement": "TITER REDUCTION FACTOR", "setting": "[4]", "result": 8}, {"measurement": "LOG (TITER/ML)", "setting": "[5]", "result": 8.9}, {"measurement": "TITER REDUCTION FACTOR", "setting": "[5]", "result": 6}]}]}
